The test system of assay [1] is primary mouse hippocampal neurons. Briefly: NMDA receptor induced mitochondrial membrane potential breakdown (Rh123 imaging). Type of assay: cell-based. As to conditions: polypeptides expressed via rAAV; bath application of 20 μM NMDA. As for the experimental part: Coverslips with primary cultured neurons (DIV15-DIV17) were used to examine mitochondrial membrane potential (Ψm) and mitochondrial calcium signalling, which was performed at room temperature in CO2-independent culture medium (CICM) containing: 10 mM HEPES, 140 mM NaCl, 2.5 mM KCl, 1.0 mM MgCl2, 2.0 mM CaCl2, 1.0 mM Glycine, 35.6 mM Glucose and 0.5 mM Na-pyruvate. All images were obtained by a cooled-CCD camera (iXon 887, Andor) on an upright microscope (BX51WI, Olympus). Fluorescence excitation was provided by a xenon arc lamp in combination with an excitation filter wheel (MT-20, Olympus). Data were collected using Cell^R software (Olympus), analysed using ImageJ and quantified using Igor Pro (WaveMetrics). Ψm was detected with the small molecule fluorescence indicator Rhodamine 123 (Rh123; Molecular Probe™, R302). Primary cultured neurons were loaded with 4.3 μM Rh123 in CICM at 37° C. for 30 min, then washed and left in CICM for another 30 min before recording. At the end of each experiment, the mitochondrial uncoupler FCCP (5 μM, Sigma-Aldrich, Cat #C2920) was applied to the cells to reach the maximal Rh123 fluorescence intensity. Rh123 was imaged with 470±20 nm excitation and 525±25 nm emission wavelengths using a 20× objective. Rh123 fluorescence intensity was measured in the nucleus to minimize contamination from cytosolic mitochondrial signal and Rh123 fluorescence intensity was normalized to the maximum FCCP signal for each region of interest.
Mitochondrial dysfunction is a hallmark of NMDA receptor excitotoxicity and an early event en-route to neuronal death. A parameter that is often used to assess mitochondrial integrity is the mitochondrial membrane potential. A breakdown of the mitochondrial membrane potential can be observed after exposure of hippocampal or cortical neurons to NMDA and indicates excitotoxicity-associated mitochondrial dysfunction. Therefore, the inventors investigated the effect of polypeptides comprising the sequence of SEQ ID NO:5 or SEQ ID NO: 54 as well as of the control TRMP5 sequence (SEQ ID NO: 55) on mitochondrial membrane potential break down in primary mouse hippocampal neurons. Excitotoxicity leading to mitochondrial membrane potential break down was induced with bath application of 20 μM NMDA. After 11 minutes, the mitochondrial uncoupler, carbonylcyanide-p-trifluoromethoxyphenylhydrazone (FCCP) was added. Addition of FCCP leads to break-down of the mitochondrial membrane potential and served as a control of the test system.

Assay [2] has the same test system. Briefly: NMDA induced cell death (excitotoxicity) in cultured primary neurons. The assay is classed as cell-based. As to conditions: polypeptide expressed via rAAV infection on DIV3, NMDA 20 μM for 10 min, cell death assessed 24 h later. As for the experimental part: Primary mouse hippocampal and cortical neurons were prepared and maintained as known. Briefly, hippocampi or cerebral cortex from P0 C57Bl/6NCrl mice were dissociated and plated at a density of 1.2*105/cm^2 in Growth Medium (GM), consisting of Neurobasal A medium (Gibco™, 10888022), 2% serum free B27™ Supplement (Gibco™, 17504044), 1% rat serum (Biowest, S2150), 0.5 mM L-Glutamine (Sigma, G7513) and 0.5% P-S. Cytosine β-D-arabinofuranoside (AraC; Sigma, C1768; 2.8 μM) was added on DIV3 to prevent the proliferation of glial cells. From DIV8, half of the medium was replaced by GM without Rat serum every 48 h until being used for experiments. 24 h before experiments, GM was replaced with transfection medium (10 mM HEPES, pH 7.4, 114 mM NaCl, 26.1 mM NaHCO3, 5.3 mM KCl, 1 mM MgCl2, 2 mM CaCl2, 30 mM glucose, 1 mM glycine, 0.5 mM C3H3NaO3, and 0.001% phenol red and 10% of phosphate-free Eagle's minimum essential medium, supplemented with 7.5 µg/ml insulin, 7.5 µg/ml transferrin and 7.5 ng/ml sodium selenite (ITS Liquid Media Supplement, Sigma-Aldrich Cat #I3146)). Primary hippocampal neurons were used in live cell imaging, cell death experiments, while cortical neurons were used for mRNA and protein extraction analysis.
All viral particles were produced and purified as known in the art. All TRPM4 derived peptides (comprising SEQ ID NO:5, or any of SEQ ID NO:46 to SEQ ID NO:56) were cloned into rAAV backbone by PCR. shRNA against mouse TRPM4 were designed by BLOCK-iT™ RNAi Designer from Thermofisher to target: […] (SEQ ID NO:44, shTRPM4-1) and […] (SEQ ID NO:45, shTRPM4-2). Scramble shRNA (shSCR) has been tested and proven to have no known targets in mice. GPI anchor ([…], e.g. used in SEQ ID NO:53) sequences were synthesized by Eurofins Genomics (Ebersberg, Germany). All primers were synthesized and all plasmids were confirmed by sequencing by Eurofins Genomics.
In order to investigate the role of TRPM4 in NMDA receptor mediated excitotoxicity, the inventors used RNA interference strategies to knock down TRPM4. Cultured primary mouse hippocampus neurons were infected on day 3 in vitro (DIV3) with recombinant adeno-associated viruses (rAAVs) providing for expression of a scramble control (shSCR), shTRPM4-1 (SEQ ID NO:44) or shTRPM4-2 (SEQ ID NO:45). On DIV15-16, neurons were challenged with N-methyl-D-aspartate (NMDA, 20 μM) for 10 min. After NMDA wash out, neurons were kept in the culture medium for another 24 h before analysis. […] Evidently, TRPM4 is thus involved in the process of NMDA receptor mediated excitotoxicity.
In a next step, the inventors tried to identify regions in the mouse TRPM4 protein potentially involved in NMDA receptor mediated excitotoxicity. For this purpose, polypeptide fragments of mouse TRPM4 protein were generated and their impact on NMDA induced excitotoxicity analysed. To do so, primary neuron cultures were infected with respective rAAVs on DIV3, challenged with NMDA (20 μM) for 10 min on DIV17 and cell death assessed 24 hours later.
The sequence of SEQ ID NO:5 in TRPM4 is located in vivo just beneath the plasma membrane. […] To test this hypothesis, the inventors created a fusion protein comprising SEQ ID NO:5 and a GPI anchor, SEQ ID NO:57. The sequence of the fusion is given in SEQ ID NO:53. Neurons infected with rAAV and expressing SEQ ID NO:47 (control) or SEQ ID NO:53 were exposed to NMDA (20 μM) for 10 min on DIV15-16, with cell death assessed after 24 h.
In a next step, the inventors created a mutant of SEQ ID NO:5, in which two adjacent phenylalanine residues where substituted by tyrosine residues (SEQ ID NO: 54). […] TRPM5 is a protein related to but nonetheless distinct to TRPM4. The region in TRPM5 corresponding to SEQ ID NO:5, SEQ ID NO:55, shares only about 60% sequence identity with SEQ ID NO:5. Neurons were infected on DIV3 with rAAVs expressing SEQ ID NO: 5, SEQ ID NO: 54 or SEQ ID NO:55 and exposed to NMDA (20 μM) for 10 min on DIV17, with cell death assessed 24 h later. […]

A further assay has as its system HEK293 cells. Briefly: Luminescent cytotoxicity assay, HEK293 cells transfected with GRIN1 and GRIN2A or GRIN2B. The assay is classed as cell-based, human. As to conditions: compound added 6 h after transfection; cell death 48 h after transfection. As for the experimental part: HEK293 cells were cultured in Dulbecco's Modified Eagle Medium (DMEM, Gibco™ 41965-039) supplement with 10% Fetal Bovine Serum (FBS, Gibco™, 10270), 1% Sodium Pyruvate (Gibco™, 11360070), 1% MEM NEAA (GibcoT^M, 11140035) and 0.5% Penicillin-Streptomycin (P-S; Sigma, P0781) and Passagel5-25 were used for experiments.
To test the cytotoxicity of compounds according to the present invention, HEK293 cells (70-80% confluent) were transfected 24 hours after plating with both GRIN1 and GRIN2 Å or GRIN2B, respectively (1:[…]) with Lipofectamine 2000 according to manufacturer's instructions. The relative number of dead cells in the population at the indicated time points after transfection was measured with the CytoTox-Glo™ Cytotoxicity assay (Promega, G9290) according to manufacturer's instruction with minor modification. Briefly, 10% of total medium were mixed with 10 μL AAF-amino luciferin to reach a final volume at 200 μL with water, the dead cell relative luminescence units (DRLU) was measured by GloMax (Promega) in a 96 well white bottom polystyrene microplate (Corning Costar®, 3912). After all the measurements, lysis reagents have been added to the cells and 10% of lysate was used for the total cell relative luminescence units (TRLU) measurement. Cell death was calculated by the following equations: […]
For drug testing, P4, P8, P9, P13 and P15 were added to the medium at indicated concentration 6 h after transfection. DRLU, TRLU and cell death were measured and calculated 48 h after transfection.

In a further assay the test system is NMDA receptor. Briefly: NMDA-induced calcium transients (Fura2 calcium imaging). As to conditions: hippocampal neurons, 6 min NMDA (20 μM) application. The assay is classed as cell-based, mouse. The method, then:
In a further experiment, the impact of P4 and P15 on NMDA-induced calcium transients was assessed. Briefly, for calcium imaging, primary hippocampal neurons on coverslips were loaded with the cell-permeable, high-affinity ratiometric calcium indicator Fura2-AM (Invitrogen™ F1221), at 1 μM in CO2-independent culture medium (CICM; CICM contains: 10 mM HEPES, 140 mM NaCl, 2.5 mM KCl, 1.0 mM MgCl2, 2.0 mM CaCl2, 1.0 mM Glycine, 35.6 mM Glucose and 0.5 mM Na-pyruvate) for 30 min at 37° C., then washed and left in CICM for another 30 min to allow for de-esterification. Fura2 was excited at 340/11 nm and 380/11 nm, and fluorescence emission was obtained from a 40× UV compatible objective (LUMPLFLN, Olympus) through a 510/20 nm emission filter. For quantification, ImageJ was used to calculate average background-subtracted fluorescence intensities for 340 and 380 nm excitation (F340 and F380) from each neuron. Intracellular calcium levels were plotted as F340/F380 ratios over time, from which the NMDA response amplitude and area under the curve (AUC) was calculated to quantify NMDA-induced calcium influx.

The subject of assay [3] is primary mouse hippocampal neurons. Briefly: NMDA induced cell death (excitotoxicity) in cultured primary neurons. Type of assay: cell-based. As to conditions: neurons incubated 1 h with 1 or 10 μg fusion protein before NMDA 20 μM 10 min; cell death 24 h later.

In the case of “SEQ ID NO:55: corresponding region of mouse TRPM5, about 60% sequence identity with SEQ ID NO:5, negative control (NSEDRAFALLVRRNHSWSRTTCLHLATEADAKAFFAHDGVQAFLTKIWWGDMATGTP; listed as Mus musculus) [reference compound]”, the “NMDA receptor induced mitochondrial membrane potential breakdown” value in assay [1] is “not capable of preventing NMDA receptor induced mitochondrial membrane potential breakdown”. Besides, the results for the “protection against NMDA induced cell death (neuroprotective effect)” value in assay [2] and in assay [2] (listed as SEQ ID NO: 55) were “not capable of reducing NMDA receptor-mediated cell toxicity” and “did not reduce NMDA receptor-mediated cell toxicity”, respectively.
On to `O=C(NCc1ccc(CN2CCC(O)CC2)cc1)C1CC(F)(F)CN1` (centres unmarked) [P9], for which the “NMDA receptor induced cell death” value with HEK293 cells is recorded as “reduced the level of NMDA receptor induced cell death”.
On the same count and under the same terms, to `CC1(CN)CCN(CC(=O)Nc2cc(Cl)ccc2Cl)C1` (centres unmarked) [P13] belongs “reduced the level of NMDA receptor induced cell death”.
For MK-801 maleate [reference compound], the NMDA-induced calcium transients entry in the assay on NMDA receptor was “completely blocked”.
For the molecule `CNCC1CCN(C(=O)c2ccc(-n3cnc4ccccc43)cc2)CC1` [P8], the “NMDA receptor induced cell death” value with HEK293 cells is reported as “reduced the level of NMDA receptor induced cell death”.

B1: SEQ ID NO:56: fusion protein of SEQ ID NO:5 and protein transduction domain TAT (SEQ ID NO:42) (protein)
chain: RKKRRQRRRSQPNSEERAARLLLRRCPLWGEATCLQLAMQADARAFFAQDGVQSLLTQKWWGEMDSTTP
modifications: Fusion protein composed of TAT peptide and SEQ ID NO: 5
In the case of B1, the “protection against NMDA excitotoxicity (cell death)” value in assay [3] is on record as “protected neurons from NMDA excitotoxicity”.

For the origin of these results see US20260242440A1, “NOVEL MEANS TO MODULATE NMDA RECEPTOR-MEDIATED TOXICITY” (FUNDAMENTAL PHARMA GMBH, priority 2018, published 2026).
